Data taken from patent US20210332024A1, “MODULATORS OF PIN1 ACTIVITY AND USES THEREOF” (Yeda Research and Development Co. Ltd., priority 2019, published 2021).
“And” between values parts separate entries of the source, which are not always exact repeats. Equal entries are not always repeated. Where two headings read alike, the source gives them in different places.

Columns and labels:
Pin1 in PATU-8988T cells = biological target: T1, Pin1 in PATU-8988T cells (Homo sapiens, UniProt Q13526); assay: Live cell competition assay with Pin1-3-DTB pull-down, PATU-8988T cells; assay type: cell-based
T1 construct: endogenous in cells; host or cells: PATU-8988T
Method: The indicated cells were treated with increasing concentrations of either DMSO, Pin1-3, or Pin1-3-AcA for 5 hours. Cells were harvested by scraping and washed twice with PBS before lysis with 50 mM HEPES (pH 7.4), 1 mM EDTA, 10% glycerol, 1 mM TCEP, 150 mM NaCl, 1 mM EDTA, 0.5% NP-40, and protease inhibitor tablet (Roche cat. #4693159001). After clarifying (14,000 rpm for 15 minutes), samples were treated with the indicated concentrations of Pin1-3-DTB at 4° C. for 1 hour. Lysates were then incubated with streptavidin agarose resin (Thermo Scientific, cat. #20349) for 1.5 hour at 4° C. Beads were washed four times with 500 μl of washing buffer (50 mM HEPES (pH 7.5), 10 mM NaCl, 1 mM EDTA, 10% glycerol), then pelleted by centrifugation and dried. The beads were boiled for 5 minutes at 95° C. in 2×LDS+10% β-mercaptoethanol. Proteins of interest were then assessed via Western blotting using the bolt system (Life Technologies).
The indicated cells were plated in 10 cm plates with 2.5 million cells per plate in 6 ml of medium. The day after plating, cells were treated with the indicated concentrations of candidate inhibitor for the indicated time points. The cells were then washed two times with cold phosphate buffer saline (1 ml per 10 cm plate) and collected by scraping with a cell scraper. Cells were lysed in 50 mM HEPES (pH 7.4), 1 mM EDTA, 10% glycerol, 1 mM TCEP, 150 mM NaCl, 1 mM EDTA, 0.5% NP-40, and protease inhibitor tablet (Roche)-using 210 μl of cell lysis buffer per 10 cm plate of cells. After clarifying (14,000 rpm for 15 minutes), 9 μl of each lysate sample was combined with […] of 4×LDS+10% β-mercaptoethanol (in a ratio of 3:1), boiled for 5 minutes, and set aside for the input loading control. Then, 200 μl of each lysate sample was incubated with 1 μM of Pin1-3-DTB for 1 hour at 4° C. and processed as described hereinabove for the lysate pull-down assays.
In order to assess cell permeability of Pin1-3 as well as its ability to engage cellular Pin1, PATU-8988T cells were treated with Pin1-3 (0.25 to 1 μM) for 5 hours. After cell lysis, the lysates were incubated with Pin1-3-DTB (1 μM, 1 hour at 4° C.) and probe-labeled targets were pulled down with streptavidin beads.

[1] = test system: PC3 prostate cancer cells; assay: Prolonged-treatment cell growth, PC3; assay type: cell-based; conditions: PC3, 1 or 2.5 μM
Method: The ability of Pin1-3 treatment to induce more pronounced anti-proliferative effects after prolonged treatment (6-8 days) was then assessed. In order to ensure that target engagement was maintained for the duration of the experiment, Pin1-3 was replenished in fresh media every 48 hours.

[2] = test system: Pin1-knockout pancreatic cancer cells; assay: Organoid growth in Matrigel, Pin1-knockout PATU-8988T; assay type: cell-based; conditions: 1 μM, 9 days
Method: As three dimensional (3D) organoid models can reflect in vivo results better than monolayer cell culture [Baker et al., Trends Cancer Res 2016, 2:176-190], the anti-proliferative activity of Pin1-3 in PATU-8988T was further evaluated in wild-type or Pin1-knockout cells grown as organoids in Matrigel™ droplets. Cells were treated for 9 days with Pin1-3 (or Pin1-3-AcA or vehicle as a control), replenishing the compound in media every 3 days.

[3] = Pharmacokinetics, intravenous administration; assay type: in vivo, Male C57Bl/6J mice
Method: Male C57Bl/6J mice received Pin1-3 intravenously (as a 0.2 mg/ml solution in 5/5/90 NMP/Solutol/saline) or orally (as a 1 mg/ml solution in 5/5/90 NMP/Solutol/saline). The intravenous dosage was 2 mg/kg and the oral dosage was 10 mg/kg.

[4] = test system: Pancreatic ductal adenocarcinoma (PDAC) cells; assay: PDAC cell growth; assay type: cell-based, human; conditions: treated for 3 days
Method: (§1) Pancreatic ductal adenocarcinoma (PDAC) cells (derived from a human patient) were treated with Pin1-3 for 3 days. PDAC organoids were treated with Pin1-3 for 7 days (day 7 to day 14).

Pin1 = biological target: T2, Pin1 (Homo sapiens, UniProt Q13526); assay: Pin1 levels in PDAC cells (Western blot); assay type: cell-based; conditions: treated for 3 days
T2 construct: endogenous in cells; host or cells: patient-derived PDAC cells
Method: as §1

[5] = intravenous 2 mg/kg, individual mice No. 1-3, 2 mg/kg
[6] = male, C57Bl/6J, mouse, in vivo, iv, 2 mg/kg, Avg. of 3 mice
[7] = male, C57Bl/6J, mouse, in vivo, iv, 2 mg/kg, individual mice No. 1-3

T1 sequence (Q13526 whole entry): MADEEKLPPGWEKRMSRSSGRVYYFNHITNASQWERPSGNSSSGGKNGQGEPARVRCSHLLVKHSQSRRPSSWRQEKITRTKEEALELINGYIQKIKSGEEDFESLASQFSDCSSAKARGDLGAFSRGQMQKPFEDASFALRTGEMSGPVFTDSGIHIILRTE
T2 sequence (Q13526 whole entry): as above

Question: Which “Engagement of Pin1 after 2 hours” value (Pin1 in PATU-8988T cells; 1 μM) does the source give for `CC(C)(C)CN(C(=O)CCl)C1CCS(=O)(=O)C1` (stereo not drawn) [Pin1-3, 2-chloro-N-(sulfolan-3-yl)-N-neopentylacetamide] here?
Answer: about 50%

Question: What about the “Time to complete engagement of Pin1” value (Pin1 in PATU-8988T cells; 1 μM) of the same compound?
Answer: ≤ 4 h

Question: And the “Competition with Pin1-3-DTB for Pin1 binding (pull-down)” value (Pin1 in PATU-8988T cells; 0.25 to 1 μM for 5 hours (Pin1-3-AcA 1 μM))?
Answer: dose-dependent inhibition of Pin1-3-DTB pull-down

Question: And the “Concentration of maximal competition” value (Pin1 in PATU-8988T cells; 5 hours)?
Answer: 1 µM

Question: And the Cell growth [1]?
Answer: long-term inhibition

Question: And the Organoid growth [2]?
Answer: no effect

Question: What about the AUC % extrap. ([3]; intravenous 2 mg/kg, Avg. of 3 mice) of the same compound?
Answer: 0.23%

Question: And the AUC % extrap. [3, 5]?
Answer: 0.36% and 0.17% and 0.18%

Question: And the AUCINF obs. [3, 5]?
Answer: 294012 ng·min/mL and 365536 ng·min/mL

Question: What about the AUClast [3, 5] of the same compound?
Answer: 293517 min*ng/ml and 17.4 hr*μM and 364891 min*ng/ml and 21.6 hr*μM

Question: And the Cl obs. [3, 5]?
Answer: 6.80 mL/min/kg and 5.47 mL/min/kg

Question: What about the Cmax [3, 5] of the same compound?
Answer: 1620 ng/mL and 2030 ng/mL

Question: What about the MRTINF obs. [3, 5] of the same compound?
Answer: 113 min and 109 min

Question: What about the T1/2 [3, 5] of the same compound?
Answer: 40.8 min and 43.2 min

Question: What about the VSS obs. [3, 5] of the same compound?
Answer: 0.77 L/kg and 0.60 L/kg

Question: And the Cmax ([3]; intravenous 2 mg/kg, individual mice No. 1-3, 2 mg/kg, read-out: Cmax)?
Answer: 5.76 µM and 7.22 µM

Question: And the AUC(0-t) [3, 6]?
Answer: 6050 ng·h/mL and 21.5 µM·h

Question: And the half-life [3, 6]?
Answer: 45.6 min

Question: What about the AUC(0-inf) ([3]; male, C57Bl/6J, mouse, in vivo, iv, 2 mg/kg, Avg. of 3 mice, read-out: AUCINF obs. (converted)) of the same compound?
Answer: 6070 ng·h/mL

Question: What about the clearance ([3]; male, C57Bl/6J, mouse, in vivo, iv, 2 mg/kg, Avg. of 3 mice, read-out: Cl obs.) of the same compound?
Answer: 5.63 mL/min/kg

Question: What about the Cmax ([3]; male, C57Bl/6J, mouse, in vivo, iv, 2 mg/kg, Avg. of 3 mice, read-out: Cmax) of the same compound?
Answer: 2090 ng/mL and 7.42 µM

Question: What about the MRT inf ([3]; male, C57Bl/6J, mouse, in vivo, iv, 2 mg/kg, Avg. of 3 mice, read-out: MRTINF obs.) of the same compound?
Answer: 108 min

Question: And the Vd ([3]; male, C57Bl/6J, mouse, in vivo, iv, 2 mg/kg, Avg. of 3 mice, read-out: VSS obs.)?
Answer: 0.61 L/kg

Question: And the AUC(0-t) [3, 7]?
Answer: 7190 ng·h/mL and 25.6 µM·h

Question: What about the half-life [3, 7] of the same compound?
Answer: 53.4 min

Question: And the AUC(0-inf) ([3]; male, C57Bl/6J, mouse, in vivo, iv, 2 mg/kg, individual mice No. 1-3, read-out: AUCINF obs. (converted))?
Answer: 7210 ng·h/mL

Question: And the clearance ([3]; male, C57Bl/6J, mouse, in vivo, iv, 2 mg/kg, individual mice No. 1-3, read-out: Cl obs.)?
Answer: 4.62 mL/min/kg

Question: What about the Cmax ([3]; male, C57Bl/6J, mouse, in vivo, iv, 2 mg/kg, individual mice No. 1-3, read-out: Cmax) of the same compound?
Answer: 2610 ng/mL and 9.28 µM

Question: And the MRT inf ([3]; male, C57Bl/6J, mouse, in vivo, iv, 2 mg/kg, individual mice No. 1-3, read-out: MRTINF obs.)?
Answer: 102 min

Question: And the Vd ([3]; male, C57Bl/6J, mouse, in vivo, iv, 2 mg/kg, individual mice No. 1-3, read-out: VSS obs.)?
Answer: 0.47 L/kg

Question: And the Tmax ([3]; male, C57Bl/6J, mouse, in vivo, intravenous 2 mg/kg, individual mice No. 1-3)?
Answer: 30 min

Question: And the PDAC cell growth [4]?
Answer: inhibited tumor growth of PDAC cells in a dose-dependent manner

Question: And the “Pin1 levels in PDAC cells” value (Pin1)?
Answer: reduced Pin1 in PDAC cells in a dose-dependent manner
